From ChEMBL document CHEMBL1221327, “Allicin and derivates are cysteine protease inhibitors with antiparasitic activity” (Bioorg Med Chem Lett, 2010)
The source made the active and inactive calls. The calls are words filed in the database; no cut-off is given here.

What was measured:
Cathepsin B [1] = target: T1, Cathepsin B (Homo sapiens, UniProt P07858); experiment: Inhibition of cathepsin B
[2] = target: Rhodesain (Trypanosoma brucei rhodesiense) (UniProt Q95PM0); experiment: Inhibition of Trypanosoma brucei rhodesiense rhodesain at 20 uM
Chain of Rhodesain (Trypanosoma brucei rhodesiense) (Q95PM0 1-450): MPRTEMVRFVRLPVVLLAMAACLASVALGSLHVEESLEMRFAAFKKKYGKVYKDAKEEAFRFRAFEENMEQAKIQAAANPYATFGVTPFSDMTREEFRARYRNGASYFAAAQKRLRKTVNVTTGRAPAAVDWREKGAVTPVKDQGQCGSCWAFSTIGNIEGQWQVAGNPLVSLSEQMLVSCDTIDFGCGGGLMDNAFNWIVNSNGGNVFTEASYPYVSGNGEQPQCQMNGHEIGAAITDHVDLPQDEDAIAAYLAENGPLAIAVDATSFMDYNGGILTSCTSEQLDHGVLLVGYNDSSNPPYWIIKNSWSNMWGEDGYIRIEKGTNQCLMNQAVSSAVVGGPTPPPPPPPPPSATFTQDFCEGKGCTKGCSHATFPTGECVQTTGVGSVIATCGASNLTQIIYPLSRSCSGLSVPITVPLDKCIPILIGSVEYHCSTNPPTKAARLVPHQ

Procathepsin L [3] = target: T2, Procathepsin L (Homo sapiens, UniProt P07711); experiment: Inhibition of cathepsin L at 20 uM
Target sequence in this assay (P07711 114-333 limits assumed): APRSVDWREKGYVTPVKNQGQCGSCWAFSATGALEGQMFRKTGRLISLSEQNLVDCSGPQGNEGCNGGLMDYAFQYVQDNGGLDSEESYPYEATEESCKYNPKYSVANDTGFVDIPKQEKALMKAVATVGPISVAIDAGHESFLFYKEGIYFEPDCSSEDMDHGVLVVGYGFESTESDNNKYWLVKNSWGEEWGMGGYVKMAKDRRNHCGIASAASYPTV

Rhodesain = Rhodesain (Trypanosoma brucei rhodesiense, UniProt Q95PM0); experiment: Inhibition of Trypanosoma brucei rhodesiense rhodesain
Chain of Rhodesain (Q95PM0 whole entry): as the sequence (Q95PM0 1-450) above

[4] = test system: Trypanosoma brucei brucei; experiment: Antiparasitic activity against Trypanosoma brucei brucei; format: functional, organism-based
Plasmodium falciparum [5] = experiment: Antiparasitic activity against Plasmodium falciparum; format: functional, organism-based
Cathepsin B [6] = target: T1, Cathepsin B; conditions: 20 uM
Description: Inhibition of cathepsin B at 20 uM

[7] = Inhibition of Plasmodium falciparum falcipain-2
Procathepsin L [8] = target: T2, Procathepsin L; experiment: Inhibition of cathepsin L
Target sequence in this assay (P07711 whole entry): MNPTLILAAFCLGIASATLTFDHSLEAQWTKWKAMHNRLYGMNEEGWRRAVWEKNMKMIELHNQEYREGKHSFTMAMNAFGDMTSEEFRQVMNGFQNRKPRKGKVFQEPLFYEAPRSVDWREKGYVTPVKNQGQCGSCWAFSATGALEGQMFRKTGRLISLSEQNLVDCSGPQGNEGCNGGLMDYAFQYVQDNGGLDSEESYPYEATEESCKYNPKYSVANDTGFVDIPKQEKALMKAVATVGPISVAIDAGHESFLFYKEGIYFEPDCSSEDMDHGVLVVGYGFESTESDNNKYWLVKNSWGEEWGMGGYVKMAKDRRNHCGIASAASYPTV

Plasmodium falciparum [9] = experiment: Inhibition of Plasmodium falciparum falcipain-2 at 20 uM
Plasmodium falciparum [10] = experiment: Time dependent inhibition of Plasmodium falciparum falcipain-2 by Dixon plot analysis
Procathepsin L [11] = target: T2, Procathepsin L; experiment: Time dependent inhibition of cathepsin L by Dixon plot analysis
Target sequence in this assay (P07711 114-333 limits assumed): as the sequence (P07711 114-333 limits assumed) above

[12] = target: Rhodesain (Trypanosoma brucei rhodesiense) (UniProt Q95PM0); experiment: Time dependent inhibition of Trypanosoma brucei rhodesiense rhodesain by Dixon plot analysis
Cathepsin B [13] = target: T1, Cathepsin B; experiment: Inhibition of cathepsin B at 100 uM
Procathepsin L [14] = target: T2, Procathepsin L; experiment: Inhibition of cathepsin L at 100 uM
Target sequence in this assay (P07711 114-333 limits assumed): as above

Plasmodium falciparum [15] = experiment: Inhibition of Plasmodium falciparum falcipain-2 at 100 uM

Compound: C=CCS[S+]([O-])CC=C (stereo unspecified) [ALLICIN]
- Ki (Cathepsin B [1]): 8.6 µM
- inhibition [2]: inactive
- inhibition (Procathepsin L [3]): inactive
- Ki (Rhodesain): 5.31 µM
- IC50 [4]: 13.8 µM
- IC50 (Plasmodium falciparum [5]): 5.21 µM
- inhibition (Cathepsin B [6]): inactive
- Ki [7]: 1.04 µM
- Ki (Procathepsin L [8]): 9.3 µM
- inhibition (Plasmodium falciparum [9]): inactive

Compound: CCCS[S+]([O-])CCC (stereo unspecified)
- TDI (Plasmodium falciparum [10]): 10800 min⁻¹ M⁻¹
- TDI (Procathepsin L [11]): 6660 min⁻¹ M⁻¹
- Ki (Cathepsin B [1]): 15.6 µM
- TDI [12]: 7150 min⁻¹ M⁻¹
- Ki (Rhodesain): 4.44 µM
- IC50 [4]: > 40 µM
- IC50 (Plasmodium falciparum [5]): 78.3 µM
- Ki [7]: 26.4 µM
- Ki (Procathepsin L [8]): 11.3 µM

Compound: CC(C)(C)S[S+]([O-])C(C)(C)C (stereo unspecified)
- inhibition (Cathepsin B [13]): inactive
- inhibition (Procathepsin L [14]): inactive
- Ki (Rhodesain): > 100 µM
- IC50 [4]: > 40 µM
- IC50 (Plasmodium falciparum [5]): 72.5 µM
- Ki [7]: > 100 µM

Compound: [O-][S+](Cc1ccccc1)SCc1ccccc1 (stereo unspecified)
- TDI (Plasmodium falciparum [10]): 48600 min⁻¹ M⁻¹
- Ki (Cathepsin B [1]): 7.8 µM
- TDI [12]: 7800 min⁻¹ M⁻¹
- Ki (Rhodesain): 2.31 µM
- IC50 (Plasmodium falciparum [5]): 30.3 µM
- Ki [7]: 4.5 µM
- Ki (Procathepsin L [8]): 31.7 µM

Compound: CCCCCCS[S+]([O-])CCCCCC (stereo unspecified)
- TDI (Plasmodium falciparum [10]): 44100 min⁻¹ M⁻¹
- Ki (Cathepsin B [1]): 5.94 µM
- TDI [12]: 83500 min⁻¹ M⁻¹
- Ki (Rhodesain): 1 µM
- IC50 [4]: 3.08 µM
- IC50 (Plasmodium falciparum [5]): 10.9 µM
- Ki [7]: 1.8 µM
- Ki (Procathepsin L [8]): 10.4 µM

Compound: CC(C)(C)S[S+]([O-])Cc1ccccc1 (stereo unspecified)
- inhibition (Cathepsin B [13]): inactive
- inhibition (Plasmodium falciparum [15]): inactive
- Ki (Rhodesain): > 100 µM
- IC50 [4]: 11.9 µM
- IC50 (Plasmodium falciparum [5]): 52.9 µM
- Ki (Procathepsin L [8]): > 100 µM

Compound: CC(C)CCS[S+]([O-])CCC(C)C (stereo unspecified)
- Ki (Cathepsin B [1]): 18.9 µM
- Ki (Rhodesain): 0.36 µM
- IC50 (Plasmodium falciparum [5]): 54.7 µM
- Ki [7]: 3.04 µM
- Ki (Procathepsin L [8]): 3.4 µM

Compound: [O-][S+](SC1CCCCC1)C1CCCCC1 (stereo unspecified)
- Ki (Cathepsin B [1]): > 100 µM
- Ki (Rhodesain): > 100 µM
- IC50 (Plasmodium falciparum [5]): 34.4 µM
- Ki [7]: > 100 µM
- Ki (Procathepsin L [8]): > 100 µM
